Assay results taken from publication PMC6424229, “^68Ga-FAPI PET/CT: Biodistribution and Preliminary Dosimetry Estimate of 2 DOTA-Containing FAP-Targeting Agents in Patients with Various Cancers” (Journal of Nuclear Medicine, 2019).
“And” between values parts separate entries of the source, which are not always exact repeats. Equal values may be shown once. Read-outs that look alike come from different tables or passages of the source.

Tests used:
[1] = Radiation dosimetry estimate from serial PET/CT (QDOSE; OLINDA 1.1, IDAC-Dose 1.0/2.1); type: in vivo, patients; conditions: for Radiation exposure (effective dose) per 100 MBq: PET; for Radiation exposure (effective dose) per 100 MBq / Effective dose / Dosimetry estimate (OLINDA), Red marrow / Dosimetry estimate (OLINDA), Adrenals / Dosimetry estimate (OLINDA), Brain / Dosimetry estimate (OLINDA), Breasts / Dosimetry estimate (OLINDA), Gallbladder wall / Dosimetry estimate (OLINDA), Heart wall / Dosimetry estimate (OLINDA), Kidneys / Dosimetry estimate (OLINDA), Liver / Dosimetry estimate (OLINDA), Lower large intestine wall / Dosimetry estimate (OLINDA), Lungs / Dosimetry estimate (OLINDA), Muscle / Dosimetry estimate (OLINDA), Osteogenic cells / Dosimetry estimate (OLINDA), Ovaries / Dosimetry estimate (OLINDA), Pancreas / Dosimetry estimate (OLINDA), Skin / Dosimetry estimate (OLINDA), Small intestine / Dosimetry estimate (OLINDA), Spleen / Dosimetry estimate (OLINDA), Stomach wall / Dosimetry estimate (OLINDA), Testes / Dosimetry estimate (OLINDA), Thymus / Dosimetry estimate (OLINDA), Thyroid / Dosimetry estimate (OLINDA), Upper large intestine wall / Dosimetry estimate (OLINDA), Urinary bladder wall / Dosimetry estimate (OLINDA), Uterus / Dosimetry estimate (OLINDA), Total body: one patient per tracer; for Equivalent dose / radiation dose of one examination: examination with 200 MBq of 68Ga; for Dosimetry estimate (OLINDA), Red marrow: approximated from PET volume of interest in a lumbar vertebra; for Dosimetry estimate (OLINDA), Red marrow / Dosimetry estimate (OLINDA), Adrenals / Dosimetry estimate (OLINDA), Brain / Dosimetry estimate (OLINDA), Breasts / Dosimetry estimate (OLINDA), Gallbladder wall / Dosimetry estimate (OLINDA), Heart wall / Dosimetry estimate (OLINDA), Kidneys / Dosimetry estimate (OLINDA), Liver / Dosimetry estimate (OLINDA), Lower large intestine wall / Dosimetry estimate (OLINDA), Lungs / Dosimetry estimate (OLINDA), Muscle / Dosimetry estimate (OLINDA), Osteogenic cells / Dosimetry estimate (OLINDA), Ovaries / Dosimetry estimate (OLINDA), Pancreas / Dosimetry estimate (OLINDA), Skin / Dosimetry estimate (OLINDA), Small intestine / Dosimetry estimate (OLINDA), Spleen / Dosimetry estimate (OLINDA), Stomach wall / Dosimetry estimate (OLINDA), Testes / Dosimetry estimate (OLINDA), Thymus / Dosimetry estimate (OLINDA), Thyroid / Dosimetry estimate (OLINDA), Upper large intestine wall / Dosimetry estimate (OLINDA), Urinary bladder wall / Dosimetry estimate (OLINDA), Uterus / Dosimetry estimate (OLINDA), Total body: unit not given; for Dosimetry estimate (OLINDA), Adrenals / Dosimetry estimate (OLINDA), Brain / Dosimetry estimate (OLINDA), Breasts / Dosimetry estimate (OLINDA), Gallbladder wall / Dosimetry estimate (OLINDA), Heart wall / Dosimetry estimate (OLINDA), Kidneys / Dosimetry estimate (OLINDA), Liver / Dosimetry estimate (OLINDA), Lower large intestine wall / Dosimetry estimate (OLINDA), Lungs / Dosimetry estimate (OLINDA), Muscle / Dosimetry estimate (OLINDA), Osteogenic cells / Dosimetry estimate (OLINDA), Ovaries / Dosimetry estimate (OLINDA), Pancreas / Dosimetry estimate (OLINDA), Skin / Dosimetry estimate (OLINDA), Small intestine / Dosimetry estimate (OLINDA), Spleen / Dosimetry estimate (OLINDA), Stomach wall / Dosimetry estimate (OLINDA), Testes / Dosimetry estimate (OLINDA), Thymus / Dosimetry estimate (OLINDA), Thyroid / Dosimetry estimate (OLINDA), Upper large intestine wall / Dosimetry estimate (OLINDA), Urinary bladder wall / Dosimetry estimate (OLINDA), Uterus: organ dose
Experimental: (§1) To approximate the dosimetry, imaging was performed 10 min, 1 h, and 3 h after injection of 306 MBq of ^68Ga-FAPI-2 in one patient and 258 MBq of ^68Ga-FAPI-4 in another patient.
The dosimetry analysis was performed using the QDOSE dosimetry software suite (ABX-CRO). Kidneys, liver, spleen, urinary bladder content, red marrow, heart content, and remainder of body were included as source organs. Because of blood sampling failure due to poor vein conditions, the red marrow dose was approximated using the activity segmented with volume-of-interest technique in the PET scans. The non–tumor-affected lumbar vertebrae 5 (^68Ga-FAPI-2) and 4 (^68Ga-FAPI-4) were assumed to contain 2.46% of the total red marrow ([6]). Using QDOSE, all CT images were coregistered using an automatic deformable coregistration. PET images were coupled to the CT images of the corresponding imaging session. The PET images were transformed according to the transformation matrix of the coupled CT. The volumes of interest of all segmented source organs were drawn in the examination that had the best organ delineation and then were copied onto all other time points to calculate the time–activity curves. Monoexponential curve fitting was then applied to all organ time–activity curves. The cumulative activity Ã between time 0 and the first measured time point was calculated assuming a linear increase from 0 to the first measured activity. The Ã between the first measured time point and the last measured time point was integrated numerically using trapezoidal approximation. The Ã from the last measured time point to infinity was integrated using the fitted function. The total-body Ã was based on the injected activity and the calculated effective half-life in a total-field-of-view volume of interest, assuming that the limbs behave similar to the torso. This approach was chosen because some parts of the body were not in the field of view of the PET/CT device. The Ã values of total body and red marrow were added as organs into QDOSE. The Ã of the remainder of the body was then automatically calculated by subtracting all source-organ Ã values from the total-body Ã. All source-organ residence times were calculated by dividing the Ã by the injected activity. Absorbed and effective dose calculations were performed using the International Commission on Radiological Protection (ICRP)–endorsed IDAC-Dose 2.1 and IDAC-Dose 1.0 ([7]), which are integrated in QDOSE. In addition, the residence times of all included source organs and remainder of body were exported as an OLINDA case file for dose calculation in OLINDA 1.1 ([8]). Both IDAC-Dose 1.0 and OLINDA 1.1 are based on the Cristy–Eckerman stylized phantom series ([9]). IDAC-Dose 2.1 is based on the ICRP adult reference computational phantoms ([10]) and the ICRP-specific absorbed fractions ([11]). Organ masses were not adapted to individual subject organ masses.

tumor lesions [2] = assay: Serial PET/CT 10 min, 1 h and 3 h after injection (tracer kinetics, tumor retention); type: in vivo, patients; conditions: mean; one patient with metastasized breast cancer per tracer
Experimental: as §1

tumor lesions [3] = assay: PET/CT tumor uptake (SUVmax) 1 h after injection; conditions: not statistically significant; for Uptake by tumors, average SUVmax: interindividual comparison, 25 patients per tracer
[4] = PET/CT normal-organ / background uptake (SUVmax) 1 h after injection; conditions: for Unspecific uptake in locations of wound healing after surgical intervention, average SUVmax: interindividual comparison, 25 patients per tracer, not statistically significant
[5] = literature value, cited from earlier work
[6] = intraindividual comparison of 6 patients

In the case of N#C[C@@H]1CCCN1C(=O)CNC(=O)c1ccnc2ccc(OCCCN3CCN(C(=O)CN4CCN(CC(=O)O)CCN(CC(=O)O)CCN(CC(=O)O)CC4)CC3)cc12 [^68Ga-FAPI-2, metal not drawn], the “Radiation exposure (effective dose) per 100 MBq” value [1] was 1.4 mSv/100 MBq and 1.4–1.8 mSv/100 MBq, the Effective dose ([1]; calculated with IDAC1/ICRP60) was 1.82E−2 mSv/MBq and the Effective dose ([1]; calculated with IDAC2/ICRP103) was 1.79E−2 mSv/MBq. For the same compound, the Effective dose ([1]; calculated with OLINDA) was 1.80E−2 mSv/MBq and 1.80E−02 mSv/MBq, the “Equivalent dose / radiation dose of one examination” value [1] was 3–4 mSv and the “Dosimetry estimate (OLINDA), Red marrow” value [1] was 3.28E−02. For the same compound, the “Dosimetry estimate (OLINDA), Adrenals” value [1] was 1.23E−02, the “Dosimetry estimate (OLINDA), Brain” value [1] was 9.54E−03 and the “Dosimetry estimate (OLINDA), Breasts” value [1] was 9.58E−03. The “Dosimetry estimate (OLINDA), Gallbladder wall” value [1] was 1.19E−02, the “Dosimetry estimate (OLINDA), Heart wall” value [1] was 4.73E−02 and the “Dosimetry estimate (OLINDA), Kidneys” value [1] was 4.45E−02. The “Dosimetry estimate (OLINDA), Liver” value [1] was 1.51E−02, the “Dosimetry estimate (OLINDA), Lower large intestine wall” value [1] was 1.23E−02 and the “Dosimetry estimate (OLINDA), Lungs” value [1] was 1.09E−02. For the same compound, the “Dosimetry estimate (OLINDA), Muscle” value [1] was 1.04E−02, the “Dosimetry estimate (OLINDA), Osteogenic cells” value [1] was 2.94E−02 and the “Dosimetry estimate (OLINDA), Ovaries” value [1] was 1.24E−02. For the same compound, the “Dosimetry estimate (OLINDA), Pancreas” value [1] was 1.23E−02, the “Dosimetry estimate (OLINDA), Skin” value [1] was 9.01E−03 and the “Dosimetry estimate (OLINDA), Small intestine” value [1] was 1.19E−02. For the same compound, the “Dosimetry estimate (OLINDA), Spleen” value [1] was 2.62E−02, the “Dosimetry estimate (OLINDA), Stomach wall” value [1] was 1.13E−02 and the “Dosimetry estimate (OLINDA), Testes” value [1] was 1.04E−02. The “Dosimetry estimate (OLINDA), Thymus” value [1] was 1.15E−02, the “Dosimetry estimate (OLINDA), Thyroid” value [1] was 1.03E−02 and the “Dosimetry estimate (OLINDA), Upper large intestine wall” value [1] was 1.17E−02. For the same compound, the “Dosimetry estimate (OLINDA), Urinary bladder wall” value [1] was 8.89E−02, the “Dosimetry estimate (OLINDA), Uterus” value [1] was 1.33E−02 and the “Dosimetry estimate (OLINDA), Total body” value [1] was 1.19E−02. The “Decline of tumor uptake (washout) from 1 h to 3 h after injection” value (tumor lesions [2]) was 75%, the “Uptake by tumors, average SUVmax” value (tumor lesions [3]) was 8.37 and the “Tumor uptake, average SUVmax” value (tumor lesions [3]; [6]) was 7.37. For the same compound, the “Unspecific uptake in locations of wound healing after surgical intervention, average SUVmax” value [4] was 7.07, the “Background uptake in brain, average SUVmax” value [4, 6] was 0.32 and the “Background uptake in liver, average SUVmax” value [4, 6] was 1.69. For the same compound, the “Background uptake in oral/pharyngeal mucosa, average SUVmax” value [4, 6] was 2.57 and the “Uptake in all other organs compared with 18F-FDG” value ([4]; organs other than brain, liver, oral/pharyngeal mucosa, 6 patients) was “no significant difference”.

In the case of N#C[C@@H]1CC(F)(F)CN1C(=O)CNC(=O)c1ccnc2ccc(OCCCN3CCN(C(=O)CN4CCN(CC(=O)O)CCN(CC(=O)O)CCN(CC(=O)O)CC4)CC3)cc12 [^68Ga-FAPI-4, metal not drawn], the “Radiation exposure (effective dose) per 100 MBq” value [1] was 1.8 mSv/100 MBq and 1.4–1.8 mSv/100 MBq, the Effective dose ([1]; calculated with IDAC1/ICRP60) was 1.66E−2 mSv/MBq and the Effective dose ([1]; calculated with IDAC2/ICRP103) was 1.35E−2 mSv/MBq. The Effective dose ([1]; calculated with OLINDA) was 1.64E−2 mSv/MBq and 1.64E−02 mSv/MBq, the “Equivalent dose / radiation dose of one examination” value [1] was 3–4 mSv and the “Dosimetry estimate (OLINDA), Red marrow” value [1] was 2.08E−02. The “Dosimetry estimate (OLINDA), Adrenals” value [1] was 1.12E−02, the “Dosimetry estimate (OLINDA), Brain” value [1] was 9.11E−03 and the “Dosimetry estimate (OLINDA), Breasts” value [1] was 8.88E−03. The “Dosimetry estimate (OLINDA), Gallbladder wall” value [1] was 1.13E−02, the “Dosimetry estimate (OLINDA), Heart wall” value [1] was 2.02E−02 and the “Dosimetry estimate (OLINDA), Kidneys” value [1] was 4.43E−02. For the same compound, the “Dosimetry estimate (OLINDA), Liver” value [1] was 1.46E−02, the “Dosimetry estimate (OLINDA), Lower large intestine wall” value [1] was 1.17E−02 and the “Dosimetry estimate (OLINDA), Lungs” value [1] was 9.89E−03. The “Dosimetry estimate (OLINDA), Muscle” value [1] was 9.91E−03, the “Dosimetry estimate (OLINDA), Osteogenic cells” value [1] was 2.16E−02 and the “Dosimetry estimate (OLINDA), Ovaries” value [1] was 1.19E−02. The “Dosimetry estimate (OLINDA), Pancreas” value [1] was 1.13E−02, the “Dosimetry estimate (OLINDA), Skin” value [1] was 8.63E−03 and the “Dosimetry estimate (OLINDA), Small intestine” value [1] was 1.13E−02. For the same compound, the “Dosimetry estimate (OLINDA), Spleen” value [1] was 1.05E−02, the “Dosimetry estimate (OLINDA), Stomach wall” value [1] was 1.06E−02 and the “Dosimetry estimate (OLINDA), Testes” value [1] was 1.01E−02. The “Dosimetry estimate (OLINDA), Thymus” value [1] was 1.01E−02, the “Dosimetry estimate (OLINDA), Thyroid” value [1] was 9.82E−03 and the “Dosimetry estimate (OLINDA), Upper large intestine wall” value [1] was 1.11E−02. For the same compound, the “Dosimetry estimate (OLINDA), Urinary bladder wall” value [1] was 9.91E−02, the “Dosimetry estimate (OLINDA), Uterus” value [1] was 1.30E−02 and the “Dosimetry estimate (OLINDA), Total body” value [1] was 1.09E−02. The “Decline of tumor uptake (washout) from 1 h to 3 h after injection” value (tumor lesions [2]) was 25%, the “Uptake by tumors, average SUVmax” value (tumor lesions [3]) was 10.07 and the “Unspecific uptake in locations of wound healing after surgical intervention, average SUVmax” value [4] was 6.76.

In the case of O=C([O-])CN(CCN(CC(=O)[O-])Cc1cc(CCC(=O)NCCCCCC(=O)NCCCC[C@H](NC(=O)N[C@@H](CCC(=O)O)C(=O)O)C(=O)O)ccc1[O-])Cc1cc(CCC(=O)O)ccc1[O-].[68Ga+3].[OH3+] [^68Ga-PSMA-11], the Effective dose [5] is listed as 1.6–2.4 mSv/100 MBq.

For O=C([O-])CN1CCN(CC(=O)[O-])CCN(CC(=O)NC[C@H]2CC[C@H](C(=O)N[C@@H](Cc3ccc4ccccc4c3)C(=O)NCCCC[C@H](NC(=O)N[C@@H](CCC(=O)O)C(=O)O)C(=O)O)CC2)CCN(CC(=O)[O-])CC1.[68Ga+3] [^68Ga-PSMA-617], the Effective dose ([5]; no reference of its own printed) is given as 2.1 mSv/100 MBq.
